Results published in ChEMBL document CHEMBL1154454, “Tetrahydronaphthyl azole oxime ethers: the conformationally rigid analogues of oxiconazole as antibacterials” (2009).
Values after ≈ are worked out from the molar mass of the structure shown.

Tests used:
Assay type in all cases: functional
[1] = tested on: Trichophyton mentagrophytes; experiment: Antimicrobial activity against Trichophyton mentagrophytes after 96 hrs by standard microbroth dilution assay
Candida albicans = experiment: Antimicrobial activity against Candida albicans after 48 hrs by standard microbroth dilution assay
Candida parapsilosis = experiment: Antimicrobial activity against Candida parapsilosis after 48 hrs by standard microbroth dilution assay; conditions: Lodderomyces parapsilosis
Escherichia coli = experiment: microbe, parasite or virus in culture; conditions: ATCC 9637, 24 h
Description: Antimicrobial activity against Escherichia coli ATCC 9637 after 24 hrs by standard microbroth dilution assay

Staphylococcus aureus = experiment: microbe, parasite or virus in culture; conditions: ATCC 25923, 24 h
Description: Antimicrobial activity against Staphylococcus aureus ATCC 25923 after 24 hrs by standard microbroth dilution assay

Klebsiella pneumoniae = experiment: microbe, parasite or virus in culture; conditions: ATCC 27736, 24 h
Description: Antimicrobial activity against Klebsiella pneumoniae ATCC 27736 after 24 hrs by standard microbroth dilution assay

Aspergillus fumigatus = experiment: Antimicrobial activity against Aspergillus fumigatus after 72 hrs by standard microbroth dilution assay
Pseudomonas aeruginosa = experiment: Antimicrobial activity against Pseudomonas aeruginosa ATCC BAA427 after 24 hrs by standard microbroth dilution assay
Cryptococcus neoformans = experiment: Antimicrobial activity against Cryptococcus neoformans after 72 hrs by standard microbroth dilution assay
Sporothrix schenckii = experiment: Antimicrobial activity against Sporothrix schenckii after 72 hrs by standard microbroth dilution assay

SMILES | MIC [1] | MIC (Candida albicans) | MIC (Candida parapsilosis) | MIC (Escherichia coli) | MIC (Staphylococcus aureus) | MIC (Klebsiella pneumoniae) | MIC (Aspergillus fumigatus) | MIC (Pseudomonas aeruginosa) | MIC (Cryptococcus neoformans) | MIC (Sporothrix schenckii)
Fc1cccc2c1CCC(Cn1cncn1)/C2=N/OCc1cccc(Cl)c1 (stereo unspecified) | > 50 mg/L | > 50 mg/L | > 50 mg/L | 50 mg/L (≈ 130 µM) | > 50 mg/L | > 50 mg/L | > 50 mg/L | > 50 mg/L | > 50 mg/L | > 50 mg/L
Fc1cccc2c1CCC(Cn1ccnc1)/C2=N/OCc1cccc(Cl)c1 (stereo unspecified) | > 50 mg/L | > 50 mg/L | > 50 mg/L | 0.391 mg/L (≈ 1.02 µM) | 0.781 mg/L (≈ 2.03 µM) | 1.56 mg/L (≈ 4.07 µM) | > 50 mg/L | > 50 mg/L | > 50 mg/L | > 50 mg/L
OC(Cn1cncn1)(Cn1cncn1)c1ccc(F)cc1F [FLUCONAZOLE] | 1 mg/L (≈ 3.27 µM) | 0.5 mg/L (≈ 1.63 µM) | 1 mg/L (≈ 3.27 µM) |  |  |  | 2 mg/L (≈ 6.53 µM) |  | 1 mg/L (≈ 3.27 µM) | 2 mg/L (≈ 6.53 µM)
Clc1cccc(CO/N=C2/c3ccccc3CCC2Cn2ccnc2)c1 (stereo unspecified) | 25 mg/L (≈ 68.3 µM) | > 50 mg/L | > 50 mg/L | > 50 mg/L | 6.25 mg/L (≈ 17.1 µM) | > 50 mg/L | > 50 mg/L | > 50 mg/L | > 50 mg/L | > 50 mg/L
Clc1cccc(CO/N=C2\c3cccc(Cl)c3CCC2Cn2cncn2)c1 (stereo unspecified) | > 50 mg/L | > 50 mg/L | > 50 mg/L | 6.25 mg/L (≈ 15.6 µM) | > 50 mg/L | > 50 mg/L | > 50 mg/L | > 50 mg/L | > 50 mg/L | > 50 mg/L
Cc1cccc2c1CCC(Cn1ccnc1)/C2=N/OCc1cccc(Cl)c1 (stereo unspecified) | > 50 mg/L | > 50 mg/L | > 50 mg/L | 0.391 mg/L (≈ 1.03 µM) | 0.781 mg/L (≈ 2.06 µM) | 1.56 mg/L (≈ 4.11 µM) | 50 mg/L (≈ 132 µM) | > 50 mg/L | > 50 mg/L | > 50 mg/L
Clc1ccc(CO/N=C(\Cn2ccnc2)c2ccc(Cl)cc2Cl)c(Cl)c1 [OXICONAZOLE] | 6.25 mg/L (≈ 14.6 µM) | 12.5 mg/L (≈ 29.1 µM) | 3.12 mg/L (≈ 7.27 µM) | > 50 mg/L | 6.25 mg/L (≈ 14.6 µM) | > 50 mg/L | 6.25 mg/L (≈ 14.6 µM) | > 50 mg/L | 0.01 mg/L (≈ 0.0233 µM) | 3.12 mg/L (≈ 7.27 µM)
c1ccc(CO/N=C2\c3ccccc3CCC2Cn2cncn2)cc1 (stereo unspecified) | > 50 mg/L | > 50 mg/L | > 50 mg/L | 25 mg/L (≈ 75.2 µM) | > 50 mg/L | > 50 mg/L | > 50 mg/L | > 50 mg/L | > 50 mg/L | > 50 mg/L
Clc1cccc2c1CCC(Cn1ccnc1)/C2=N\OCc1ccccc1 (stereo unspecified) | 12.5 mg/L (≈ 34.2 µM) | 50 mg/L (≈ 137 µM) | > 50 mg/L | > 50 mg/L | 3.12 mg/L (≈ 8.54 µM) | > 50 mg/L | > 50 mg/L | > 50 mg/L | > 50 mg/L | 50 mg/L (≈ 137 µM)
Clc1cccc(CO/N=C2\c3cccc(Br)c3CCC2Cn2cncn2)c1 (stereo unspecified) | > 50 mg/L | > 50 mg/L | > 50 mg/L | 3.12 mg/L (≈ 7.01 µM) | 6.25 mg/L (≈ 14 µM) | > 50 mg/L | > 50 mg/L | > 50 mg/L | > 50 mg/L | > 50 mg/L
Clc1cccc(CO/N=C2\c3ccccc3CCC2Cn2cncn2)c1 (stereo unspecified) | > 50 mg/L | > 50 mg/L | > 50 mg/L | 12.2 mg/L (≈ 33.4 µM) | 12.2 mg/L (≈ 33.4 µM) | > 50 mg/L | > 50 mg/L | > 50 mg/L | > 50 mg/L | > 50 mg/L
Clc1cccc2c1CCC(Cn1cncn1)/C2=N/OCc1ccccc1 (stereo unspecified) | > 50 mg/L | > 50 mg/L | > 50 mg/L | 25 mg/L (≈ 68.1 µM) | > 50 mg/L | > 50 mg/L | > 50 mg/L | > 50 mg/L | > 50 mg/L | > 50 mg/L
Brc1cccc2c1CCC(Cn1cncn1)/C2=N/OCc1ccccc1 (stereo unspecified) | > 50 mg/L | > 50 mg/L | > 50 mg/L | 6.25 mg/L (≈ 15.2 µM) | 12.5 mg/L (≈ 30.4 µM) | > 50 mg/L | > 50 mg/L | > 50 mg/L | > 50 mg/L | > 50 mg/L
Fc1cccc2c1CCC(Cn1cncn1)/C2=N/OCc1ccccc1 (stereo unspecified) | > 50 mg/L | > 50 mg/L | > 50 mg/L | 25 mg/L (≈ 71.3 µM) | > 50 mg/L | > 50 mg/L | > 50 mg/L | > 50 mg/L | > 50 mg/L | > 50 mg/L
Cc1cccc2c1CCC(Cn1cncn1)/C2=N/OCc1ccccc1 (stereo unspecified) | > 50 mg/L | > 50 mg/L | > 50 mg/L | 25 mg/L (≈ 72.2 µM) | > 50 mg/L | > 50 mg/L | > 50 mg/L | > 50 mg/L | > 50 mg/L | > 50 mg/L
Cc1cccc2c1CCC(Cn1cncn1)/C2=N/OCc1cccc(Cl)c1 (stereo unspecified) | > 50 mg/L | > 50 mg/L | > 50 mg/L | 6.25 mg/L (≈ 16.4 µM) | 6.25 mg/L (≈ 16.4 µM) | > 50 mg/L | > 50 mg/L | > 50 mg/L | > 50 mg/L | > 50 mg/L
Clc1cccc2c1CCC(Cn1ccnc1)/C2=N/OCc1ccccc1 (stereo unspecified) | > 50 mg/L | > 50 mg/L | > 50 mg/L | 0.391 mg/L (≈ 1.07 µM) | 1.56 mg/L (≈ 4.27 µM) | 6.25 mg/L (≈ 17.1 µM) | 25 mg/L (≈ 68.3 µM) | > 50 mg/L | > 50 mg/L | > 50 mg/L
c1ccc(CO/N=C2\c3ccccc3CCC2Cn2ccnc2)cc1 (stereo unspecified) | > 50 mg/L | > 50 mg/L | > 50 mg/L | 0.781 mg/L (≈ 2.36 µM) | 6.25 mg/L (≈ 18.9 µM) | 6.25 mg/L (≈ 18.9 µM) | 50 mg/L (≈ 151 µM) | > 50 mg/L | > 50 mg/L | > 50 mg/L
Clc1cccc(CO/N=C2\c3ccccc3CCC2Cn2ccnc2)c1 (stereo unspecified) | > 50 mg/L | > 50 mg/L | > 50 mg/L | 0.391 mg/L (≈ 1.07 µM) | 1.56 mg/L (≈ 4.27 µM) | 3.12 mg/L (≈ 8.54 µM) | 25 mg/L (≈ 68.3 µM) | > 50 mg/L | > 50 mg/L | > 50 mg/L
Fc1cccc2c1CCC(Cn1ccnc1)/C2=N/OCc1ccccc1 (stereo unspecified) | > 50 mg/L | > 50 mg/L | > 50 mg/L | 0.781 mg/L (≈ 2.24 µM) | 3.12 mg/L (≈ 8.94 µM) | 6.25 mg/L (≈ 17.9 µM) | > 50 mg/L | > 50 mg/L | > 50 mg/L | > 50 mg/L
Clc1cccc(CO/N=C2\c3cccc(Br)c3CCC2Cn2ccnc2)c1 (stereo unspecified) | > 50 mg/L | > 50 mg/L | 50 mg/L (≈ 112 µM) | 0.391 mg/L (≈ 0.879 µM) | 0.781 mg/L (≈ 1.76 µM) | 1.56 mg/L (≈ 3.51 µM) | > 50 mg/L | > 50 mg/L | > 50 mg/L | > 50 mg/L
Brc1cccc2c1CCC(Cn1ccnc1)/C2=N/OCc1ccccc1 (stereo unspecified) | > 50 mg/L | > 50 mg/L | > 50 mg/L | 0.391 mg/L (≈ 0.953 µM) | 1.56 mg/L (≈ 3.81 µM) | 3.12 mg/L (≈ 7.62 µM) | 50 mg/L (≈ 122 µM) | > 50 mg/L | > 50 mg/L | > 50 mg/L
